The values below come from patent US20250100996A1, “HETEROCYCLOALKYL AND HETEROARYL COMPOUNDS AND PHARMACEUTICAL COMPOSITIONS THAT MODULATE IKZF2” (Plexium, Inc., priority 2021, published 2025).

Structures are written as SMILES.

For assay [1], the target named is T1, human E3 ligase component cereblon (CRBN) (Homo sapiens, UniProt Q96SW2).
T1 construct: host or cells: HEK293T
Nature of the assay: Cereblon (CRBN) target engagement, NanoBRET TE Intracellular E3 Ligase Assay in transfected HEK-293T cells. The conditions noted are these: read-out: CRBN Binding EC50. The method in brief:
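HEK-293T cells transiently co-transfected with NanoLuc-CRBN (N-terminal NanoLuc) and DDB1 were dosed with CRBN tracer and an 11-point compound series (typically 10 μM to 100 pM) for 2 h at 37° C. BRET at 450/610 nm gave IC50 by four-parameter logistic fit.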
For orientation: In BRET a luciferase serves as donor, and the signal depends on an acceptor being close.

Assay [2] deals with T2, IKZF1 (Ikaros) (Homo sapiens, UniProt Q13422).
T2 construct: mScarlet (behind P2A) (C, cleaved yes); expressed in transfected cells
T2 sequence (Q96SW2 whole entry partner): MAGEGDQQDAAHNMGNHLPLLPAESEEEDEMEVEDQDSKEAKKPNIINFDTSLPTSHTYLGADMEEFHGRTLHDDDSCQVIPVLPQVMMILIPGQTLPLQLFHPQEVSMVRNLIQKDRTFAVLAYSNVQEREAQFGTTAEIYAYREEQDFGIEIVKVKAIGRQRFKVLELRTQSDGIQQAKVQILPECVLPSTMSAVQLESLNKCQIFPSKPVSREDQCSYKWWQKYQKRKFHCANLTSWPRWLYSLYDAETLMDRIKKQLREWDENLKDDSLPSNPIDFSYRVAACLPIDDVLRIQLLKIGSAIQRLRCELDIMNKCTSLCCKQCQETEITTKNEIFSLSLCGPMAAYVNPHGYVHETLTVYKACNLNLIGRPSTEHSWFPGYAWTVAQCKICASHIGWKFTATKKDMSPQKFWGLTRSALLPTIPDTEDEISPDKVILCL
T2 sequence (Q16531 whole entry partner): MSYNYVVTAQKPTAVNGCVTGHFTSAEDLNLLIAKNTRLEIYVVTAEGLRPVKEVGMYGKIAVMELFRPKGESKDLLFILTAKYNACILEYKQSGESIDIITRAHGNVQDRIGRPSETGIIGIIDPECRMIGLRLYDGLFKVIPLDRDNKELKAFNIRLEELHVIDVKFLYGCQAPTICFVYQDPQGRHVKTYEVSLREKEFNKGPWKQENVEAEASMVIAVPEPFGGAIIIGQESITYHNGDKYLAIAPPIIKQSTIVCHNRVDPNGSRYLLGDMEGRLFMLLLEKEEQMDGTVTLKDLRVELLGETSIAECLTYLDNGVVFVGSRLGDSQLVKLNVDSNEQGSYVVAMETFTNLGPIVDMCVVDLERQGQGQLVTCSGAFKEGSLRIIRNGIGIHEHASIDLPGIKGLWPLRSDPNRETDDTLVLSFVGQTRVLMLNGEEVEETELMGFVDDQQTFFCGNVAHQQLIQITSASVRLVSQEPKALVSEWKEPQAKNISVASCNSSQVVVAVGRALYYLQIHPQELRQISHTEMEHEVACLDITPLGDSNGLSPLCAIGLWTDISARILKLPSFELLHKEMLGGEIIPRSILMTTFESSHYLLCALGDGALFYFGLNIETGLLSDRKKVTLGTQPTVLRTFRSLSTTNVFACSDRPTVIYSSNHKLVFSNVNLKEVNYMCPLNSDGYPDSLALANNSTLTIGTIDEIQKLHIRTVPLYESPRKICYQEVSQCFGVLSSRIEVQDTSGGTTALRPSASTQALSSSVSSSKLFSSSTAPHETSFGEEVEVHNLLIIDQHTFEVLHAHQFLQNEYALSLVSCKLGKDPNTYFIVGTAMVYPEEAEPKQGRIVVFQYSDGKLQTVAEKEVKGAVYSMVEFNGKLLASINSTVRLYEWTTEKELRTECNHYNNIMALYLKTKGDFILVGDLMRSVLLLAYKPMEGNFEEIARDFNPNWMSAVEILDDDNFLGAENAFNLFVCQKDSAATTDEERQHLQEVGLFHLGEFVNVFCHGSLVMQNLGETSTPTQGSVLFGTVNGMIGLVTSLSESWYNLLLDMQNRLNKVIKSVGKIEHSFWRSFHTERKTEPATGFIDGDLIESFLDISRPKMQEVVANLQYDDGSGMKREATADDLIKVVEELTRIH
T2 sequence (Q13422 whole entry): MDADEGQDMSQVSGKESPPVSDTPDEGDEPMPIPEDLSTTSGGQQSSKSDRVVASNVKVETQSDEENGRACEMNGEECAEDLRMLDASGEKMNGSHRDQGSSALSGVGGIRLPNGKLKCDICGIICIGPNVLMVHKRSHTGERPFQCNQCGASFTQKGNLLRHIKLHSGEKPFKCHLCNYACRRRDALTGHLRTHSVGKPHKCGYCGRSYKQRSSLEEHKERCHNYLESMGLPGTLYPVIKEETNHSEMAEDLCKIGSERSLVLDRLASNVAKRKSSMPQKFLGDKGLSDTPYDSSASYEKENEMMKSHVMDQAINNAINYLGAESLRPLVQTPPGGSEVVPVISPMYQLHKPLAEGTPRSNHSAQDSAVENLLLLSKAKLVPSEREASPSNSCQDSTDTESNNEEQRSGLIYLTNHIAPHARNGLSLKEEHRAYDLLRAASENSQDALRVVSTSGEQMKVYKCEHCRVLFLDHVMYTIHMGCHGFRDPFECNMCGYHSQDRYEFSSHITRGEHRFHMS
Nature of the assay: IKZF1 reporter degradation assay (HEK 293T IKZF1-mNeonGreen reporter cell line). The following applies: HEK 293T IKZF1-mNeonGreen reporter, 24 hours incubation. The assay is classed as cell-based. The method in brief:
(§1)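 Clonal HEK 293T lines stably expressing the IKZF-(GGGGS)3-mNeonGreen-P2A-mScarlet reporter were treated with compound for 24 h at 37 °C (≤0.5% DMSO, quadruplicate). Live imaging scored percent mNeonGreen-positive cells, with mScarlet used for segmentation. DC50 came from four-parameter logistic fits.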

The target of assay [3] is T3, IKZF2 (Helios) (Homo sapiens, UniProt Q96SW2+Q9UKS7).
T3 construct: Leu-Asp junction (codons ctcgac before the linker); mScarlet (behind P2A) (C, cleaved yes); expressed in transfected cells
T3 sequence (Q9UKS7 whole entry): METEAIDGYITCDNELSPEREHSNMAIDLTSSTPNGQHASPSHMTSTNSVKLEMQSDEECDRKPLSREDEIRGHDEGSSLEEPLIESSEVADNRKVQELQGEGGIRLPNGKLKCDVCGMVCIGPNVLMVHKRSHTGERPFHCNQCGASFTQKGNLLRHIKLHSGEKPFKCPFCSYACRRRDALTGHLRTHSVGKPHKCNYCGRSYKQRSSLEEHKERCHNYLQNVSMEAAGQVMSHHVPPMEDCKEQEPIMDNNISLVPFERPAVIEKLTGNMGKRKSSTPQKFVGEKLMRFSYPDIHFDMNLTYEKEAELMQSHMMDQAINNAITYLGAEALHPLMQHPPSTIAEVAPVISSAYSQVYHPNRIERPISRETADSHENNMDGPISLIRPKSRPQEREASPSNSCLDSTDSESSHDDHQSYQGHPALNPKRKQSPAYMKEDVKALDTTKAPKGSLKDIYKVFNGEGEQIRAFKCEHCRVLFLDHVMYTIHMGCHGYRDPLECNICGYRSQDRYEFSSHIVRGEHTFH
T3 sequence (Q96SW2 whole entry): as the sequence (Q96SW2 whole entry partner) above
T3 sequence (Q16531 whole entry partner): as the sequence (Q16531 whole entry partner) above
Nature of the assay: IKZF2 reporter degradation assay (HEK 293T IKZF2-mNeonGreen reporter cell line). The assay is classed as cell-based. The conditions noted are these: HEK-293T, 24 h, @ 1 μM, HEK 293T IKZF2-mNeonGreen reporter, 24 hours incubation. The procedure, abridged:
as §1

For assay [4], the target named is T4, IKZF2 (Helios) (Homo sapiens, UniProt Q9UKS7).
T4 construct: Leu-Asp junction (codons ctcgac before the linker); mScarlet (behind P2A) (C, cleaved yes); expressed in transfected cells
T4 sequence (Q9UKS7 whole entry): as the sequence (Q9UKS7 whole entry) above
T4 sequence (Q96SW2 whole entry, further chain): as the sequence (Q96SW2 whole entry partner) above
T4 sequence (Q16531 whole entry partner): as the sequence (Q16531 whole entry partner) above
The assay is described as above. Type of assay: cell-based. The following applies: HEK 293T IKZF2-mNeonGreen reporter, 24 hours incubation. The procedure, abridged:
as §1

Assay [5] has as its target T5, IKZF3 (Aiolos) (Homo sapiens, UniProt Q9UKT9).
T5 construct: Leu-Asp junction (codons ctcgac before the linker); mScarlet (behind P2A) (C, cleaved yes); expressed in transfected cells
Nature of the assay: IKZF3 reporter degradation assay (HEK 293T IKZF3-mNeonGreen reporter cell line). The assay is classed as cell-based. The following applies: HEK 293T IKZF3-mNeonGreen reporter, 24 hours incubation. The method in brief:
as §1

T1 sequence (Q96SW2 whole entry): as the sequence (Q96SW2 whole entry partner) above
T1 sequence (Q16531 whole entry partner): as the sequence (Q16531 whole entry partner) above
T5 sequence (Q96SW2 whole entry partner): as the sequence (Q96SW2 whole entry partner) above
T5 sequence (Q16531 whole entry partner): as the sequence (Q16531 whole entry partner) above
T5 sequence (Q9UKT9 whole entry): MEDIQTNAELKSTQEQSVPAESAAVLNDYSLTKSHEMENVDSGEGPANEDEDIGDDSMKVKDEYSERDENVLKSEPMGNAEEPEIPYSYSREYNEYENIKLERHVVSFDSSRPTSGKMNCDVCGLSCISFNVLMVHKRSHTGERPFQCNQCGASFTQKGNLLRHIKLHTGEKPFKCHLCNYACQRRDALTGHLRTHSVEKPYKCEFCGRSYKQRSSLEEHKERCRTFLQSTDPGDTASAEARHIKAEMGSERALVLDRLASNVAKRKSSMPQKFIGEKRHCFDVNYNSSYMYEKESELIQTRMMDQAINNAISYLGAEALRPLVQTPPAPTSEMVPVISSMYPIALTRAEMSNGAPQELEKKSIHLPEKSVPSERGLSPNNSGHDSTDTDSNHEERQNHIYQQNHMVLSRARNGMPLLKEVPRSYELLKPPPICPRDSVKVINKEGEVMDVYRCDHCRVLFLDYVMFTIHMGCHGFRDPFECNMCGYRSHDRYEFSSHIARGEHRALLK

The EC50 is the midpoint of the concentration-response curve. The term DC50 denotes the midpoint of the concentration-degradation curve. A low value points to degradation at low concentration. As a reminder, the inhibition is the share of the control response that was lost under treatment. With `O=C1CCC(N2Cc3cc(O[C@H]4CCCC[C@@H]4N4CC(c5ncc(C(F)(F)F)cn5)C4)ccc3C2=O)C(=O)N1` (mixture of isomers) [Compound 187-B, Rac-3-(1-oxo-5-(((trans)-2-(3-(5-(trifluoromethyl)pyrimidin-2-yl)azetidin-1-yl)cyclohexyl)oxy)isoindolin-2-yl)piperidine-2,6-dione], the EC50 in assay [1] stood at 6 nM. In addition, the DC50 in assay [2] is more than 30000 nM; in assay [4], 85 nM; in assay [5], more than 30000 nM. Besides, in assay [3], the inhibition at 1 µM is 27.4%.
On to `Cc1ccnc(C2CN([C@H]3CCCC[C@@H]3Oc3ccc4c(c3)CN(C3CCC(=O)NC3=O)C4=O)C2)n1` (mixture of isomers) [Compound 188-B, Rac-3-(5-(((trans)-2-(3-(4-methylpyrimidin-2-yl)azetidin-1-yl)cyclohexyl)oxy)-1-oxoisoindolin-2-yl)piperidine-2,6-dione], for which the EC50 in assay [1] came out at 44 nM. Also, the DC50 in assay [2] was more than 30000 nM; in assay [4] it was 240 nM; in assay [5], more than 30000 nM. In assay [3], this compound yielded an inhibition at 1 µM of 42%.
Consider `Cc1cnc(C2CN([C@H]3CCCC[C@@H]3Oc3ccc4c(c3)CN(C3CCC(=O)NC3=O)C4=O)C2)nc1` (mixture of isomers) [Compound 189-B, Rac-3-(5-(((trans)-2-(3-(5-methylpyrimidin-2-yl)azetidin-1-yl)cyclohexyl)oxy)-1-oxoisoindolin-2-yl)piperidine-2,6-dione], for which, in assay [1], the EC50 stood at 13 nM. The DC50 in assay [2] is more than 30000 nM; in assay [4], 123 nM; in assay [5], more than 30000 nM. Also, the inhibition at 1 µM in assay [3] was 21.2%.
As to `O=C1CCC(N2Cc3cc(O[C@H]4CCCC[C@@H]4N4CC(c5ccc(C(F)(F)F)cn5)C4)ccc3C2=O)C(=O)N1` (mixture of isomers) [Compound 192-B, Rac-3-(1-oxo-5-(((trans)-2-(3-(5-(trifluoromethyl)pyridin-2-yl)azetidin-1-yl)cyclohexyl)oxy)isoindolin-2-yl)piperidine-2,6-dione], in assay [1], the concentration giving a half-maximal response (EC50) amounted to 7 nM. For the same compound, the DC50 in assay [2] is more than 30000 nM; in assay [4], 123 nM; in assay [5], more than 30000 nM. This compound returned an inhibition at 1 µM in assay [3] of 25.6%.
Take `O=C1CCC(N2Cc3cc(OC4CCC[C@@H]4N4CC(c5cncnc5)C4)ccc3C2=O)C(=O)N1` (mixture of isomers) [Compound 196-B, Rac-3-(1-oxo-5-(((cis)-2-(3-(pyrimidin-5-yl)azetidin-1-yl)cyclopentyl)oxy)isoindolin-2-yl)piperidine-2,6-dione]: the concentration giving a half-maximal response (EC50) in assay [1] is 214 nM. Further, the DC50 in assay [2] was more than 30000 nM; in assay [4], 601 nM; in assay [5], more than 30000 nM. In assay [3], this compound showed an inhibition at 1 µM of 17.6%.
On to `COc1ccc(C2CN([C@H]3CCCC3Oc3ccc4c(c3)CN(C3CCC(=O)NC3=O)C4=O)C2)cn1` (mixture of isomers) [Compound 201-B, Rac-3-(5-(((cis)-2-(3-(6-methoxypyridin-3-yl)azetidin-1-yl)cyclopentyl)oxy)-1-oxoisoindolin-2-yl)piperidine-2,6-dione], for which the EC50 in assay [1] worked out at 36 nM. Besides, the DC50 is more than 30000 nM in assay [2], 78 nM in assay [4] and more than 30000 nM in assay [5]. Further, the inhibition at 1 µM in assay [3] came to 62.7%.
As to `O=C1CCC(N2Cc3cc(OC4CCC[C@@H]4N4CC(c5ccncc5)C4)ccc3C2=O)C(=O)N1` (mixture of isomers) [Compound 205-B, Rac-3-(1-oxo-5-(((cis)-2-(3-(pyridin-4-yl)azetidin-1-yl)cyclopentyl)oxy)isoindolin-2-yl)piperidine-2,6-dione], the EC50 in assay [1] is 46 nM. Besides, the DC50 in assay [2] was more than 30000 nM; in assay [4] it was 219 nM; in assay [5], more than 30000 nM. In addition, the inhibition at 1 µM in assay [3] stood at 40.6%.
For the compound `O=C1CCC(N2Cc3cc(OC4CCC[C@@H]4N4CC(c5cccnc5)C4)ccc3C2=O)C(=O)N1` (mixture of isomers) [Compound 207-B, Rac-3-(1-oxo-5-(((cis)-2-(3-(pyridin-3-yl)azetidin-1-yl)cyclopentyl)oxy)isoindolin-2-yl)piperidine-2,6-dione], the EC50 in assay [1] came to 104 nM. For the same compound, the DC50 in assay [2] is more than 30000 nM; in assay [4], 1470 nM; in assay [5], more than 30000 nM. Besides, in assay [3], testing at 1 µM gave an inhibition of 24.8%.
Turning to `O=C1CCC(N2Cc3cc(OC4CCC[C@@H]4N4CC(c5ccccn5)C4)ccc3C2=O)C(=O)N1` (mixture of isomers) [Compound 209-B, Rac-3-(1-oxo-5-(((cis)-2-(3-(pyridin-2-yl)azetidin-1-yl)cyclopentyl)oxy)isoindolin-2-yl)piperidine-2,6-dione], in assay [1], the EC50 was found to be 58 nM. Besides, the 50% degradation concentration (DC50) in assay [2] is more than 30000 nM; in assay [4], 230 nM; in assay [5] it was more than 30000 nM. Also, in assay [3], the inhibition at 1 µM turned out to be 38.9%.
Regarding `O=C1CCC(N2Cc3cc(O[C@H]4CCCC[C@@H]4N4CC(c5ccc6c(c5)OCCO6)C4)ccc3C2=O)C(=O)N1` (stereo partly drawn) [Compound 58-A, 3-(5-(((1S,2S)-2-(3-(2,3-dihydrobenzo[b][1,4]dioxin-6-yl)azetidin-1-yl)cyclohexyl)oxy)-1-oxoisoindolin-2-yl)piperidine-2,6-dione], the concentration giving a half-maximal response (EC50) in assay [1] stood at 3 nM. The DC50 in assay [2] was more than 30000 nM; in assay [4], 5 nM; in assay [5] it was more than 30000 nM. This compound showed an inhibition at 1 µM in assay [3] of 64.5%.
Regarding `O=C1CCC(N2Cc3cc(OC4CCCC4N4CC(c5ccc6cccnc6c5)C4)ccc3C2=O)C(=O)N1` (centres unmarked) [Compound 169-B, 3-(1-oxo-5-((2-(3-(quinolin-7-yl)azetidin-1-yl)cyclopentyl)oxy)isoindolin-2-yl)piperidine-2,6-dione], the EC50 in assay [1] worked out at 13 nM. Besides, the results for the 50% degradation concentration (DC50) in assay [2], in assay [4] and in assay [5] were more than 30000 nM, 46 nM and more than 30000 nM, respectively. In addition, the inhibition at 1 µM in assay [3] is 56.3%.
For the compound `COc1cc(C2CN(C3CCCC3Oc3ccc4c(c3)CN(C3CCC(=O)NC3=O)C4=O)C2)ccn1` (centres unmarked) [Compound 170-B, 3-(5-((2-(3-(2-methoxypyridin-4-yl)azetidin-1-yl)cyclopentyl)oxy)-1-oxoisoindolin-2-yl)piperidine-2,6-dione], in assay [1], the EC50 came out at 109 nM. The figures for the half-maximal degradation concentration (DC50) in assay [2], in assay [4] and in assay [5] were more than 30000 nM, 66 nM and more than 30000 nM, respectively. The same compound had an inhibition at 1 µM in assay [3] of 54.6%.
For the compound `O=C1CCC(N2Cc3cc(OC4CCCCC4N4CC(c5ncc(C6CC6)cn5)C4)ccc3C2=O)C(=O)N1` (centres unmarked) [Compound 177-B, 3-(5-((2-(3-(5-cyclopropylpyrimidin-2-yl)azetidin-1-yl)cyclohexyl)oxy)-1-oxoisoindolin-2-yl)piperidine-2,6-dione], the EC50 in assay [1] is 2 nM. In addition, the figures for the half-maximal degradation concentration (DC50) in assay [2], in assay [4] and in assay [5] were more than 30000 nM, 4 nM and more than 30000 nM, respectively. In assay [3], the inhibition at 1 µM stood at 70.3%.
Regarding `Cc1nccc(C2CN(C3CCCCC3Oc3ccc4c(c3)CN(C3CCC(=O)NC3=O)C4=O)C2)n1` (centres unmarked) [Compound 190-B, 3-(5-((2-(3-(2-methylpyrimidin-4-yl)azetidin-1-yl)cyclohexyl)oxy)-1-oxoisoindolin-2-yl)piperidine-2,6-dione], in assay [1], the EC50 stood at 44 nM. The DC50 was more than 30000 nM in assay [2], 71 nM in assay [4] and more than 30000 nM in assay [5]. In assay [3], the inhibition at 1 µM is 74.3%.
In the case of `O=C1CCC(N2Cc3cc(OC4CCCCC4N4CC(c5ccc6cccnc6c5)C4)ccc3C2=O)C(=O)N1` (centres unmarked) [Compound 193-B, 3-(1-oxo-5-((2-(3-(quinolin-7-yl)azetidin-1-yl)cyclohexyl)oxy)isoindolin-2-yl)piperidine-2,6-dione], the concentration for a half-maximal effect (EC50) in assay [1] amounted to 6 nM. Further, the DC50 in assay [2] is more than 30000 nM; in assay [4] it was 6 nM; in assay [5] it was more than 30000 nM. The compound further yielded an inhibition at 1 µM in assay [3] of 81.9%.
Consider `O=C1CCC(N2Cc3cc(O[C@@H]4CCC[C@@H]4N4CC(c5ccnc6ccccc56)C4)ccc3C2=O)C(=O)N1` (stereo partly drawn) [Compound 194-B, 3-(1-oxo-5-(((1R,2S)-2-(3-(quinolin-4-yl)azetidin-1-yl)cyclopentyl)oxy)isoindolin-2-yl)piperidine-2,6-dione], for which, in assay [1], the EC50 is 17 nM. For the same compound, the results for the DC50 in assay [2], in assay [4] and in assay [5] were more than 30000 nM, 7 nM and 283 nM, respectively. Besides, the inhibition at 1 µM in assay [3] stood at 79.8%; in assay [5] (HEK-293T, 24 h, @ 1 μM), 26.6%.
With `Cc1cnccc1C1CN(C2CCCCC2Oc2ccc3c(c2)CN(C2CCC(=O)NC2=O)C3=O)C1` (centres unmarked) [Compound 198-B, 3-(5-((2-(3-(3-methylpyridin-4-yl)azetidin-1-yl)cyclohexyl)oxy)-1-oxoisoindolin-2-yl)piperidine-2,6-dione], in assay [1], the EC50 turned out to be 10 nM. For the same compound, the figures for the DC50 in assay [2], in assay [4] and in assay [5] were more than 30000 nM, 11 nM and more than 30000 nM, respectively. This compound also returned an inhibition at 1 µM in assay [3] of 72.3%.
